The record followed here is US12252480B2, “Salt forms and polymorphs of (R)-1-(4-(6-(2-(4-(3,3-difluorocyclobutoxy)-6-methylpyridin-2-yl)acetamido) pyridazin-3-yl)-2-fluorobutyl)-n-methyl-1H-1,2,3-triazole-4-carboxamide” (Board of Regents, The University of Texas System, priority 2015, dated 2025).

One series concerns A549 cells. Nature of the series: Proliferation Assay (A549, Cell Titer Fluor). The conditions noted are these: Homo sapiens, 72 hours incubation, read-out: EC50 against A549 cell proliferation. It is filed as cell-based. How it is done:
Proliferation Assay. A549 cells were routinely maintained in RPMI 1640 media (Gibco catalog number 11875-093) supplemented with 10% dialyzed fetal bovine serum using a humidified incubator (37° C., 5% CO2 and ambient O2). In preparation for the viability assay, cells were inoculated into 384-well black CulturPlates (Perkin Elmer) at a density of 1000 cells/well in a volume of 40 uL. Following a 24-hour incubation at 37° C., 5% CO2 and ambient O2, cells were treated with compound (10 uL) in a final DMSO concentration of 0.5% (v/v). The microplates were then incubated for 72 hours (37° C., 5% CO2 and ambient O2). Cell Titer Fluor (Promega) was subsequently added (10 uL of 6× reagent) and mixed for 15 minutes at room temperature. The plates were then incubated for 30 minutes (37° C., 5% CO2 and ambient O2) and fluorescence was subsequently read on the Perkin Elmer Envision plate reader. IC50 values were calculated using a four-parameter logistic curve fit.

Series [1] is described as follows: Dynamic Vapor Sorption (DVS). It is filed as physicochemical. Here is the method: Dynamic Vapor Sorption (DVS) was examined with an SMS Advantage instrument. About 10 mg of sample was transferred into the instrument, and the weight change with respect to the atmospheric humidity at 25° C. was recorded accordingly, with the following parameters: Equilibrium: dm/dt: 0.01%/min. (for min: 10 min and max: 180 min); drying: 0% RH for 120 min; RH (%) measurement step: 10%; RH (%) measurement step scope: 0-90-0%.

Each structure is given as a SMILES string.

Take `CNC(=O)c1cn(C[C@H](F)CCc2ccc(NC(=O)Cc3cc(OC4CC(F)(F)C4)cc(C)n3)nn2)nn1` [Example 1, (R)-1-(4-(6-(2-(4-(3,3-difluorocyclobutoxy)-6-methylpyridin-2-yl)acetamido)pyridazin-3-yl)-2-fluorobutyl)-N-methyl-1H-1,2,3-triazole-4-carboxamide]: the EC50 in the series with A549 cells was less than 100 nM.

Regarding `CNC(=O)c1cn(C[C@H](F)CCc2ccc(NC(=O)Cc3cc(OC4CC(F)(F)C4)cc(C)n3)nn2)nn1` [Polymorph D, (R)-1-(4-(6-(2-(4-(3,3-difluorocyclobutoxy)-6-methylpyridin-2-yl)acetamido)pyridazin-3-yl)-2-fluorobutyl)-N-methyl-1H-1,2,3-triazole-4-carboxamide], in series [1] (25° C., 0-80% RH), the “hygroscopicity (DVS result)” value is listed as “non-hygroscopic”. For the same molecule, the “Change of Mass, Desorption” value in series [1] (Target % P/P0 0) was found to be 0.052%; in series [1] (Target % P/P0 10), 0.0276%; in series [1] (Target % P/P0 20) it was 0.0440%; in series [1] (Target % P/P0 30), 0.0587%; in series [1] (Target % P/P0 40) it was 0.0759%; in series [1] (Target % P/P0 50), 0.0906%. Moreover, the “Change of Mass, Desorption” value in series [1] (Target % P/P0 60) turned out to be 0.1087%; in series [1] (Target % P/P0 70) it was 0.1294%; in series [1] (Target % P/P0 80), 0.1527%; in series [1] (Target % P/P0 90) it was 0.1768%. In addition, the “Change of Mass, Sorption” value came out at 0.000% in series [1] (Target % P/P0 0); 0.0216% in series [1] (Target % P/P0 10); 0.0336% in series [1] (Target % P/P0 20); 0.0474% in series [1] (Target % P/P0 30); 0.0578% in series [1] (Target % P/P0 40); 0.0690% in series [1] (Target % P/P0 50). The “Change of Mass, Sorption” value in series [1] (Target % P/P0 60) was determined as 0.0828%; in series [1] (Target % P/P0 70), 0.1035%; in series [1] (Target % P/P0 80), 0.1337%; in series [1] (Target % P/P0 90), 0.1768%. Besides, the “Change of Mass, Hysteresis” value was found to be 0.0060% in series [1] (Target % P/P0 10); 0.0104% in series [1] (Target % P/P0 20); 0.0112% in series [1] (Target % P/P0 30); 0.0181% in series [1] (Target % P/P0 40); 0.0216% in series [1] (Target % P/P0 50); 0.0259% in series [1] (Target % P/P0 60). The “Change of Mass, Hysteresis” value in series [1] (Target % P/P0 70) is given as 0.0259%; in series [1] (Target % P/P0 80) it was 0.0190%. Also, in series [1] (after DVS 0-90-0% RH), the “form transformation after DVS (XRPD overlay)” value is reported as “no form transformation”. The water sorption in series [1] (from 0-80% RH, 25° C.) is recorded as 0.1%.
